Reference: PubChem BioAssay (NCI)
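Test compounds were applied to cells in 96-well plates for 48 hours at 5 doses. Definition used: TGI = concentration required for complete inhibition of growth.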

How the values were obtained:
Experiment in all cases: growth of human tumour cells (NCI), 48 h
SF-539 CNS = tested on: SF-539 CNS
OVCAR-8 ovarian = tested on: OVCAR-8 ovarian
NCI/ADR-RES ovarian = tested on: NCI/ADR-RES ovarian
HCT-15 colon = tested on: HCT-15 colon
NCI-H522 lung = tested on: NCI-H522 lung
MOLT-4 leukemia = tested on: MOLT-4 leukemia
MDA-MB-231 breast = tested on: MDA-MB-231 breast
KM12 colon = tested on: KM12 colon
RPMI-8226 leukemia = tested on: RPMI-8226 leukemia
IGROV1 ovarian = tested on: IGROV1 ovarian
OVCAR-4 ovarian = tested on: OVCAR-4 ovarian
UACC-257 melanoma = tested on: UACC-257 melanoma
NCI-H226 lung = tested on: NCI-H226 lung
LOX IMVI melanoma = tested on: LOX IMVI melanoma
MALME-3M melanoma = tested on: MALME-3M melanoma
MDA-MB-435 = tested on: MDA-MB-435
SK-MEL-28 melanoma = tested on: SK-MEL-28 melanoma
K-562 leukemia = tested on: K-562 leukemia
MCF7 breast = tested on: MCF7 breast
HOP-62 NSCLC = tested on: HOP-62 NSCLC
MDA-N = tested on: MDA-N
SN12C renal = tested on: SN12C renal
UO-31 renal = tested on: UO-31 renal
HS 578T breast = tested on: HS 578T breast
T-47D breast = tested on: T-47D breast
ACHN renal = tested on: ACHN renal
SF-268 CNS = tested on: SF-268 CNS
COLO 205 colon = tested on: COLO 205 colon
EKVX NSCLC = tested on: EKVX NSCLC
SNB-75 CNS = tested on: SNB-75 CNS
UACC-62 melanoma = tested on: UACC-62 melanoma
786-0 renal = tested on: 786-0 renal
HT29 colon = tested on: HT29 colon
OVCAR-5 ovarian = tested on: OVCAR-5 ovarian
SNB-19 CNS = tested on: SNB-19 CNS
BT-549 breast = tested on: BT-549 breast
HCT-116 colon = tested on: HCT-116 colon
M14 melanoma = tested on: M14 melanoma
NCI-H23 lung = tested on: NCI-H23 lung
CAKI-1 renal = tested on: CAKI-1 renal
SF-295 CNS = tested on: SF-295 CNS
PC-3 prostate = tested on: PC-3 prostate
NCI-H460 lung = tested on: NCI-H460 lung
U251 CNS = tested on: U251 CNS
SR leukemia = tested on: SR leukemia
CCRF-CEM leukemia = tested on: CCRF-CEM leukemia
SW-620 colon = tested on: SW-620 colon
SK-MEL-2 melanoma = tested on: SK-MEL-2 melanoma
OVCAR-3 ovarian = tested on: OVCAR-3 ovarian
SK-OV-3 ovarian = tested on: SK-OV-3 ovarian
SK-MEL-5 melanoma = tested on: SK-MEL-5 melanoma
A549 NSCLC = tested on: A549 NSCLC
HCC-2998 colon = tested on: HCC-2998 colon
TK-10 renal = tested on: TK-10 renal
DU-145 prostate = tested on: DU-145 prostate
A498 renal = tested on: A498 renal
HOP-92 NSCLC = tested on: HOP-92 NSCLC
HL-60(TB) leukemia = tested on: HL-60(TB) leukemia
RXF 393 renal = tested on: RXF 393 renal

Cc1csc2nc3[nH]ncc3c(=O)n12 was tested, and the TGI (SF-539 CNS) was > 100 µM, the TGI (OVCAR-8 ovarian) was > 100 µM and the TGI (NCI/ADR-RES ovarian) was > 100 µM. For the same compound, the TGI (HCT-15 colon) was > 100 µM, the TGI (NCI-H522 lung) was > 100 µM and the TGI (MOLT-4 leukemia) was > 100 µM. The TGI (MDA-MB-231 breast) was > 100 µM, the TGI (KM12 colon) was > 100 µM and the TGI (RPMI-8226 leukemia) was > 100 µM. The TGI (IGROV1 ovarian) was > 100 µM, the TGI (OVCAR-4 ovarian) was > 100 µM and the TGI (UACC-257 melanoma) was > 100 µM. The TGI (NCI-H226 lung) was > 100 µM, the TGI (LOX IMVI melanoma) was > 100 µM and the TGI (MALME-3M melanoma) was > 100 µM. For the same compound, the TGI (MDA-MB-435) was > 100 µM, the TGI (SK-MEL-28 melanoma) was > 100 µM and the TGI (K-562 leukemia) was > 100 µM. The TGI (MCF7 breast) was > 100 µM, the TGI (HOP-62 NSCLC) was > 100 µM and the TGI (MDA-N) was > 100 µM. For the same compound, the TGI (SN12C renal) was > 100 µM, the TGI (UO-31 renal) was > 100 µM and the TGI (HS 578T breast) was > 100 µM. The TGI (T-47D breast) was > 100 µM, the TGI (ACHN renal) was > 100 µM and the TGI (SF-268 CNS) was > 100 µM. For the same compound, the TGI (COLO 205 colon) was > 100 µM, the TGI (EKVX NSCLC) was > 100 µM and the TGI (SNB-75 CNS) was > 100 µM. The TGI (UACC-62 melanoma) was > 100 µM, the TGI (786-0 renal) was > 100 µM and the TGI (HT29 colon) was > 100 µM. The TGI (OVCAR-5 ovarian) was > 100 µM, the TGI (SNB-19 CNS) was > 100 µM and the TGI (BT-549 breast) was > 100 µM. The TGI (HCT-116 colon) was > 100 µM, the TGI (M14 melanoma) was > 100 µM and the TGI (NCI-H23 lung) was > 100 µM. For the same compound, the TGI (CAKI-1 renal) was > 100 µM, the TGI (SF-295 CNS) was > 100 µM and the TGI (PC-3 prostate) was > 100 µM. For the same compound, the TGI (NCI-H460 lung) was > 100 µM, the TGI (U251 CNS) was > 100 µM and the TGI (SR leukemia) was > 100 µM. For the same compound, the TGI (CCRF-CEM leukemia) was > 100 µM, the TGI (SW-620 colon) was > 100 µM and the TGI (SK-MEL-2 melanoma) was > 100 µM. The TGI (OVCAR-3 ovarian) was > 100 µM, the TGI (SK-OV-3 ovarian) was > 100 µM and the TGI (SK-MEL-5 melanoma) was > 100 µM. For the same compound, the TGI (A549 NSCLC) was > 100 µM and the TGI (HCC-2998 colon) was > 100 µM.
In the case of N/C(COc1ccc(Cl)cc1)=N\NC(=O)c1ccncc1, the TGI (SF-539 CNS) was > 100 µM, the TGI (OVCAR-8 ovarian) was > 100 µM and the TGI (NCI/ADR-RES ovarian) was > 100 µM. The TGI (HCT-15 colon) was > 100 µM, the TGI (NCI-H522 lung) was > 100 µM and the TGI (MOLT-4 leukemia) was > 100 µM. The TGI (TK-10 renal) was > 100 µM, the TGI (DU-145 prostate) was > 100 µM and the TGI (MDA-MB-231 breast) was > 100 µM. For the same compound, the TGI (KM12 colon) was > 100 µM, the TGI (RPMI-8226 leukemia) was > 100 µM and the TGI (IGROV1 ovarian) was > 100 µM. The TGI (A498 renal) was > 100 µM, the TGI (OVCAR-4 ovarian) was > 100 µM and the TGI (UACC-257 melanoma) was > 100 µM. For the same compound, the TGI (LOX IMVI melanoma) was > 100 µM, the TGI (MALME-3M melanoma) was > 100 µM and the TGI (MDA-MB-435) was > 100 µM. For the same compound, the TGI (SK-MEL-28 melanoma) was > 100 µM, the TGI (K-562 leukemia) was > 100 µM and the TGI (MCF7 breast) was > 100 µM. For the same compound, the TGI (HOP-62 NSCLC) was > 100 µM, the TGI (MDA-N) was > 100 µM and the TGI (SN12C renal) was > 100 µM. The TGI (HOP-92 NSCLC) was > 100 µM, the TGI (HS 578T breast) was > 100 µM and the TGI (T-47D breast) was > 100 µM. The TGI (ACHN renal) was > 100 µM, the TGI (SF-268 CNS) was > 100 µM and the TGI (COLO 205 colon) was > 100 µM. For the same compound, the TGI (EKVX NSCLC) was > 100 µM, the TGI (SNB-75 CNS) was 85.2 µM and the TGI (UACC-62 melanoma) was > 100 µM. The TGI (786-0 renal) was > 100 µM, the TGI (HT29 colon) was > 100 µM and the TGI (OVCAR-5 ovarian) was > 100 µM. The TGI (SNB-19 CNS) was > 100 µM, the TGI (BT-549 breast) was > 100 µM and the TGI (HCT-116 colon) was > 100 µM. The TGI (M14 melanoma) was > 100 µM, the TGI (NCI-H23 lung) was > 100 µM and the TGI (CAKI-1 renal) was > 100 µM. The TGI (SF-295 CNS) was > 100 µM, the TGI (PC-3 prostate) was > 100 µM and the TGI (NCI-H460 lung) was > 100 µM. The TGI (U251 CNS) was > 100 µM, the TGI (CCRF-CEM leukemia) was > 100 µM and the TGI (SW-620 colon) was > 100 µM. The TGI (SK-MEL-2 melanoma) was > 100 µM, the TGI (OVCAR-3 ovarian) was > 100 µM and the TGI (SK-OV-3 ovarian) was > 100 µM. The TGI (HL-60(TB) leukemia) was > 100 µM, the TGI (RXF 393 renal) was > 100 µM and the TGI (A549 NSCLC) was > 100 µM. For the same compound, the TGI (HCC-2998 colon) was > 100 µM.
